Source: patent US8309602B2, “Multi-substituted diarylanilines as non-nucleoside HIV reverse transcriptase inhibitors, and preparation and use thereof” (Institute of Pharmacology and Toxicology, priority 2007, dated 2012)
Values after ≈ are worked out from the molar mass of the structure shown. Where two headings read alike, the source gives them in different places.

Assays:
Type in all cases: cell-based
HIV virus (IIIB) = experiment: Assay of anti-HIV activity (H9 cell model), P24 antigen ELISA; details: for SI (CC50/EC50): H9 cell line, ratio of cytotoxicity CC50 to activity EC50; for EC50: H9 cell line infected with HIV (IIIB), 50% inhibition of virus replication
Description: Reference document (J. Med. Chem. 2004, 47, 756-760). Lymphocyte H9 was cultured at 37° C. in culture medium 1640 and 5% CO2. The tested compound was initially dissolved in DMSO, and then diluted with culture medium to conventional screening concentration: 100, 20, 4, 0.8 μg/mL. The cultured H9 cells were divided into two parts, wherein one of the parts was infected with HIV virus (IIIB) (m.i.o. 0.1-0.01 infectious Units/cell), which was used for assaying activity. The other part of the cells was not added with viruses but only with culture medium, which was used for assaying toxicity. The two parts of the cells were cultured under completely identical conditions (37° C., 5% CO2) for 4 hours, washed with fresh culture medium for three times, and then were added respectively to the prepared tested samples of different concentrations or to culture medium (the latter was positive infection control or negative drug control), and meanwhile AZT was used as positive drug control. All these cells were cultured at 37° C. in 5% CO2 for 4 days. In the fourth day, the cell membranes of the cells infected by viruses were removed, and the cytosol was tested by P24 antigen ELISA method to assay the activity of the sample, expressed using EC50. EC50 was an effective concentration when virus replication was inhibited by 50%. The part of the cells without viruses added were tested by the method of counting cells to assay the toxicity of the sample, expressed using CC50. CC50 was a concentration when growth cells were killed by 50%.

HIV-1IIIB virus strains = experiment: Assay of anti-HIV activity (MT-2 cell model), p24 antigen ELISA; details: for EC50: MT-2 cell line infected with HIV-1IIIB, 50% virus inhibition; for SI (CC50/EC50): MT-2 cell line, ratio of cytotoxicity CC50 to activity EC50
Description: Reference documents (Jiang, S., et al. Antimicrob. Agents Chemother. 2004, 48, 4349-4359). In 96 wells culture plate, 50 μl of different concentrations of compound solutions were mixed with HIV-1IIIB virus strains (100 TCID50) in the same volume, incubated at 37° C. for 30 minutes, added with 100 μl TM-2 cell (1×10^5/mL, RPIM 1640 culture medium containing 10% serum), mixed uniformly, and incubated at 37° C. overnight. In the second day, 150 μl supernatant was sucked off and supplemented with fresh culture medium in the same volume, the compound solutions were incubated continuously at 37° C. for 3 days, and the cell pathology effect (CPE) was recorded in the fourth day. Then 100 μl cultured supernatant was sucked up to determine p24 antigen therein with 5% Triton X-100 lytic virus particles by using ELISA method. Briefly, HIVIG (2 μg/ml) was used to encapsulate enzyme standard plate, sealed with 1% fat-free milk, and then added with virus lytic solution, incubated at 37° C. for 60 minutes. After the plate was washed completely, anti-p24 monoclonal antibody-183-12H-5C, goat anti-mouse antibody labeled with biotin and horse radish peroxidase labeled with avidin were added. Then the compounds were developed with TMB, and the light density was tested at 450 nm. The virus inhibition concentration of 50% (EC50) of the compounds was calculated by using CalcuSyn software.

[1] = Cytotoxicity test of compound in H9 cells; details: human, H9 cell line, uninfected cells
Description: (§1) Reference document (J. Med. Chem. 2004, 47, 756-760). Lymphocyte H9 was cultured at 37° C. in culture medium 1640 and 5% CO2. […] The cultured H9 cells were divided into two parts, wherein one of the parts was infected with HIV virus (IIIB) (m.i.o. 0.1-0.01 infectious Units/cell), which was used for assaying activity. The other part of the cells was not added with viruses but only with culture medium, which was used for assaying toxicity. The two parts of the cells were cultured under completely identical conditions (37° C., 5% CO2) for 4 hours, washed with fresh culture medium for three times, and then were added respectively to the prepared tested samples of different concentrations or to culture medium (the latter was positive infection control or negative drug control), and meanwhile AZT was used as positive drug control. All these cells were cultured at 37° C. in 5% CO2 for 4 days. […] The part of the cells without viruses added were tested by the method of counting cells to assay the toxicity of the sample, expressed using CC50. […] Reference documents (Jiang, S., et al. Antimicrob. Agents Chemother. 2004, 48, 4349-4359). In 96 wells culture plate, 50 μl of different concentrations of compound solutions were mixed with PBS in the same volume, incubated at 37° C. for 30 minutes, added with 100 μL TM-2 (or H9) cell (1×10^5/mL, RPIM 1640 culture medium containing 10% serum), mixed uniformly, and incubated at 37° C. overnight.

[2] = Cytotoxicity test of compound in MT-2 cells (XTT); details: human, MT-2 cell line, uninfected cells
Description: (§2) Reference documents (Jiang, S., et al. Antimicrob. Agents Chemother. 2004, 48, 4349-4359). In 96 wells culture plate, 50 μl of different concentrations of compound solutions were mixed with PBS in the same volume, incubated at 37° C. for 30 minutes, added with 100 μL TM-2 (or H9) cell (1×10^5/mL, RPIM 1640 culture medium containing 10% serum), mixed uniformly, and incubated at 37° C. overnight.

H9 cells = experiment: Cytotoxicity test of compound in H9 cells; details: H9 cell line, uninfected cells
Description: as §1

MT-2 cells = experiment: Cytotoxicity test of compound in MT-2 cells (XTT); details: MT-2 cell line, uninfected cells
Description: as §2

[3] = Human immunodeficiency virus 1, read-out: EC50
[4] = Human immunodeficiency virus 1, MT2, read-out: EC50

Compound: Cc1cc(Br)cc(C)c1Oc1cc(Nc2ccc(C#N)cc2)c([N+](=O)[O-])cc1[N+](=O)[O-] [Compound I-1, N^1-(4′-cyanophenyl)-5-(2′,6′-dimethyl-4′-bromophenoxy)-2,4-dinitroaniline]
- SI (CC50/EC50) (HIV virus (IIIB)): >234
- EC50 (HIV virus (IIIB); [3]): 0.11 µg/mL (≈ 0.228 µM)
- EC50 (HIV-1IIIB virus strains; [4]): 0.14 µg/mL (≈ 0.29 µM)
- SI (CC50/EC50) (HIV-1IIIB virus strains): >714
- CC50 at 4 days [1]: > 25 µg/mL
- CC50 at 4 days [2]: > 100 µg/mL

Compound: Cc1cccc(C)c1Oc1cc(Nc2ccc(C#N)cc2)c([N+](=O)[O-])cc1[N+](=O)[O-] [Compound I-2, N^1-(4′-cyanophenyl)-5-(2′,6′-dimethylphenoxy)-2,4-dinitroaniline]
- SI (CC50/EC50) (HIV virus (IIIB)): >113
- EC50 (HIV virus (IIIB); [3]): 0.22 µg/mL (≈ 0.544 µM)
- EC50 (HIV-1IIIB virus strains; [4]): 3.71 µg/mL (≈ 9.17 µM)
- SI (CC50/EC50) (HIV-1IIIB virus strains): >27
- CC50 at 4 days [1]: > 25 µg/mL
- CC50 at 4 days [2]: > 100 µg/mL

Compound: Cc1cc(C)c(Nc2cc(Nc3ccc(C#N)cc3)c([N+](=O)[O-])cc2[N+](=O)[O-])c(C)c1 [Compound I-3, N^1-(4′-cyanophenyl)-2,4-dinitro-N^5-(2′,4′,6′-trimethylphenyl)-benzene-1,5-diamine]
- SI (CC50/EC50) (HIV virus (IIIB)): >455
- EC50 (HIV virus (IIIB); [3]): 0.055 µg/mL (≈ 0.132 µM)
- EC50 (HIV-1IIIB virus strains; [4]): 0.18 µg/mL (≈ 0.431 µM)
- SI (CC50/EC50) (HIV-1IIIB virus strains): >556
- CC50 at 4 days [1]: > 25 µg/mL
- CC50 at 4 days [2]: > 100 µg/mL

Compound: CC(=O)ON(c1cc(Nc2ccc(C#N)cc2)c([N+](=O)[O-])cc1[N+](=O)[O-])c1c(C)cc(C)cc1C [Compound I-4, N^1-(4′-cyanophenyl)-2,4-dinitro-[N^5-acetoxy-N^5-(2′,4′,6′-trimethylphenyl)]benzene-1,5-diamine]
- EC50 (HIV virus (IIIB)): 1.77 µg/mL (≈ 3.72 µM)
- SI (CC50/EC50) (HIV virus (IIIB)): >14.15
- EC50 (HIV-1IIIB virus strains): 2.61 µg/mL (≈ 5.49 µM)
- SI (CC50/EC50) (HIV-1IIIB virus strains): 23.45
- CC50 (H9 cells): >25 µg/mL
- CC50 (MT-2 cells): 61.21 µg/mL (≈ 129 µM)

Compound: Cc1cc(Br)cc(C)c1Oc1cc(Nc2ccc(C#N)cc2)c(N)cc1[N+](=O)[O-] [Compound I-5, 4-(4′-Bromo-2′,6′-dimethylphenoxy)-N^2-(4′-cyanophenyl)-5-nitrobenzene-1,2-diamine]
- SI (CC50/EC50) (HIV virus (IIIB)): >1000
- EC50 (HIV virus (IIIB); [3]): < 0.025 µg/mL
- EC50 (HIV-1IIIB virus strains; [4]): < 0.02 µg/mL
- SI (CC50/EC50) (HIV-1IIIB virus strains): >3054
- CC50 at 4 days ([1]; H9 lymphocyte cells): > 25 µg/mL
- CC50 at 4 days ([2]; MT-2 cells): 61.1 µg/mL (≈ 135 µM)

Compound: Cc1cc(C#N)cc(C)c1Oc1ccc([N+](=O)[O-])c(Nc2ccc(C#N)cc2)c1 [Compound I-6, N^1-(4′-cyanophenyl)-5-(4′-cyano-2′,6′-dimethylphenoxy)-2-nitroaniline]
- SI (CC50/EC50) (HIV virus (IIIB)): >312
- EC50 (HIV virus (IIIB); [3]): 0.08 µg/mL (≈ 0.208 µM)
- EC50 (HIV-1IIIB virus strains; [4]): 6.63 µg/mL (≈ 17.2 µM)
- SI (CC50/EC50) (HIV-1IIIB virus strains): 8.53
- CC50 at 4 days ([1]; H9 lymphocyte cells): > 25 µg/mL
- CC50 at 4 days ([2]; MT-2 cells): 56.5 µg/mL (≈ 147 µM)

Compound: Cc1cccc(C)c1Oc1ccc([N+](=O)[O-])c(Nc2ccc(C#N)cc2)c1 [Compound I-7, N^1-(4′-cyanophenyl)-5-(2′,6′-dimethylphenoxy)-2-nitroaniline]
- SI (CC50/EC50) (HIV virus (IIIB)): >33
- EC50 (HIV virus (IIIB); [3]): 0.76 µg/mL (≈ 2.11 µM)
- EC50 (HIV-1IIIB virus strains; [4]): 1.18 µg/mL (≈ 3.28 µM)
- SI (CC50/EC50) (HIV-1IIIB virus strains): >85
- CC50 at 4 days ([1]; H9 lymphocyte cells): > 25 µg/mL
- CC50 at 4 days ([2]; MT-2 cells): > 100 µg/mL

Compound: Cc1cc(Br)cc(C)c1Oc1cc(Nc2ccc(C#N)cc2)c(N)cc1N [Compound I-8, 5-(4′-Bromo-2′,6′-dimethylphenoxy)-N^1-(4′-cyanophenyl)benzene-1,2,4-triamine]
- SI (CC50/EC50) (HIV virus (IIIB)): 239
- EC50 (HIV virus (IIIB); [3]): 0.068 µg/mL (≈ 0.161 µM)
- EC50 (HIV-1IIIB virus strains; [4]): 0.13 µg/mL (≈ 0.307 µM)
- SI (CC50/EC50) (HIV-1IIIB virus strains): 132
- CC50 at 4 days ([1]; H9 lymphocyte cells): 16.2 µg/mL (≈ 38.4 µM)
- CC50 at 4 days ([2]; MT-2 cells): 17.2 µg/mL (≈ 40.6 µM)

Compound: Cc1cc(C#N)cc(C)c1Oc1cc(Nc2ccc(C#N)cc2)c(N)cc1N [Compound I-10, N^1-(4′-cyanophenyl)-5-(4′-Cyano-2′,6′-dimethylphenoxy)benzene-1,2,4-triamine]
- SI (CC50/EC50) (HIV virus (IIIB)): >820
- EC50 (HIV virus (IIIB); [3]): < 0.025 µg/mL
- EC50 (HIV-1IIIB virus strains; [4]): 0.008 µg/mL (≈ 0.0217 µM)
- SI (CC50/EC50) (HIV-1IIIB virus strains): 2425
- CC50 at 4 days ([1]; H9 lymphocyte cells): 20.5 µg/mL (≈ 55.5 µM)
- CC50 at 4 days ([2]; MT-2 cells): 19.4 µg/mL (≈ 52.5 µM)

Compound: Cc1cc(C#N)cc(C)c1Oc1cc(Nc2ccc(C#N)cc2)c(N)cc1[N+](=O)[O-] [Compound I-11, 5-(4′-Cyano-2′,6′-dimethylphenoxy)-N^1-(4′-cyanophenyl)-4-nitrobenzene-1,2-diamine]
- SI (CC50/EC50) (HIV virus (IIIB)): >1000
- EC50 (HIV virus (IIIB); [3]): < 0.025 µg/mL
- EC50 (HIV-1IIIB virus strains; [4]): 0.013 µg/mL (≈ 0.0325 µM)
- SI (CC50/EC50) (HIV-1IIIB virus strains): 4715
- CC50 at 4 days ([1]; H9 lymphocyte cells): > 25 µg/mL
- CC50 at 4 days ([2]; MT-2 cells): 61.3 µg/mL (≈ 153 µM)

Compound: Cc1cc(Br)cc(C)c1Oc1ccc(N)c(Nc2ccc(C#N)cc2)c1 [Compound I-13, 4-(4′-Bromo-2′,6′-dimethylphenoxy)-N^2-(4′-cyanophenyl)benzene-1,2-diamine]
- SI (CC50/EC50) (HIV virus (IIIB)): 128
- EC50 (HIV virus (IIIB); [3]): 0.134 µg/mL (≈ 0.328 µM)
- EC50 (HIV-1IIIB virus strains; [4]): 0.16 µg/mL (≈ 0.392 µM)
- SI (CC50/EC50) (HIV-1IIIB virus strains): 91
- CC50 at 4 days ([1]; H9 lymphocyte cells): 17.2 µg/mL (≈ 42.1 µM)
- CC50 at 4 days ([2]; MT-2 cells): 14.5 µg/mL (≈ 35.5 µM)

Compound: Cc1cc(C)c(Oc2cc(Nc3ccc(C#N)cc3)c([N+](=O)[O-])cc2[N+](=O)[O-])c(C)c1 [Compound I-14, N^1-(4′-cyanophenyl)-5-(2′,4′,6′-trimethylphenoxy)-2,4-dinitroaniline]
- SI (CC50/EC50) (HIV virus (IIIB)): >174
- EC50 (HIV virus (IIIB); [3]): 0.144 µg/mL (≈ 0.344 µM)
- EC50 (HIV-1IIIB virus strains; [4]): 0.7 µg/mL (≈ 1.67 µM)
- SI (CC50/EC50) (HIV-1IIIB virus strains): 41.09
- CC50 at 4 days [1]: > 25 µg/mL
- CC50 at 4 days [2]: 28.8 µg/mL (≈ 68.7 µM)
